Test results reported in patent US7910740B2, “Modulators of amyloid beta” (Hoffmann-La Roche Inc., priority 2007, dated 2011).

test system: γ-secretase; test: Cellular γ-secretase assay (inhibition of Aβ42 secretion); type: cell-based; settings: human neuroglioma H4 cells overexpressing human APP, incubation for 22 hrs, read-out: IC50 in vitro
Description: Cellular γ-Secretase Assay
Human neuroglioma H4 cells overexpressing human APP were plated at 30,000 cells/well/200 μl in 96-well plates in IMDM media containing 10% FCS, 0.2 mg/l Hygromycin B and incubated for 2 h at 37° C., 5% CO2 prior to adding test compounds.
Compounds for testing were dissolved in 100% Me2SO yielding in a 10 mM stock solution.
Typically 12 μl of these solutions were further diluted in 1000 μl of IMDM media (w/o FCS,). Sub sequential 1:1 dilutions gave a ten point dose response curve. 100 μl of each dilution was added to the cells in 96-well plates. Appropriate controls using vehicle only and reference compound were applied to this assay. The final concentration of Me2SO was 0.4%.
After incubation for 22 hrs at 37° C., 5% CO2, 50 μl supernatant was transferred into round-bottom 96-well polypropylene plates for detection of Aβ42. 50 μl assay buffer (50 mM Tris/Cl, pH 7.4, 60 mM NaCl, 0.5% BSA, 1% TWEEN 20) was added to the wells followed by the addition of 100 μl of detection antibody (ruthenylated BAP15 0.0625 μg/ml in assay buffer). 50 μl of a premix of capture antibody (biotinylated 6E10 antibody, 1 μg/ml) and Steptavidin-coated magnetic beads (Dynal M-280, 0.125 mg/ml) were preincubated for 1 hr at room temperature before adding the assay plates. Assay plates were incubated on a shaker for 3 hrs at room temperature and finally read in the Bioveris M8 Analyser according to the manufacturer's instructions (Bioveris).
IC50 values for inhibition of Aβ42 secretion were calculated by nonlinear regression fit analysis using XLfit 4.0 software (IDBS).

Row | SMILES | IC50 [nM]
1 | COc1ccc(Br)cc1-c1csc(Nc2ccc(-n3cnc(C)c3)cc2)n1 [Example 21, [4-(5-Bromo-2-methoxy-phenyl)-thiazol-2-yl]-[4-(4-methyl-imidazol-1-yl)-phenyl]-amine] | 880
2 | COc1cc(Nc2nc(CC(=O)Nc3ccc(F)cc3)cs2)ccc1-n1cnc(C)c1 [Example 29, N-(4-Fluoro-phenyl)-2-{2-[3-methoxy-4-(4-methyl-imidazol-1-yl)-phenylamino]-thiazol-4-yl}-acetamide] | 950
3 | COc1cc(Nc2nc([C@H](CC(C)C)NC(=O)OC(C)(C)C)cs2)ccc1-n1cnc(C)c1 [Example 30, ((S)-1-{2-[3-Methoxy-4-(4-methyl-imidazol-1-yl)-phenylamino]-thiazol-4-yl}-3-methyl-butyl)-carbamic acid tert-butyl ester] | 390
4 | COc1cc(Nc2nc(C)c(Cc3ccc(Cl)cc3)s2)ccc1-n1cnc(C)c1 [Example 2, [5-(4-Chloro-benzyl)-4-methyl-thiazol-2-yl]-[3-methoxy-4-(4-methyl-imidazol-1-yl)-phenyl]-amine] | 240
5 | COc1cc(Nc2nc(C)c(Cc3ccc(Cl)c(C(F)(F)F)c3)s2)ccc1-n1cnc(C)c1 [Example 68, [5-(4-Chloro-3-trifluoromethyl-benzyl)-4-methyl-thiazol-2-yl]-[3-methoxy-4-(4-methyl-imidazol-1-yl)-phenyl]-amine] | 890
6 | COc1ccc(Br)cc1-c1csc(Nc2ccc(-n3ccnc3)c(OC)c2)n1 [Example 22, [4-(5-Bromo-2-methoxy-phenyl)-thiazol-2-yl]-(4-imidazol-1-yl-3-methoxy-phenyl)-amine] | 790
7 | COc1cc(Nc2nc(C)c(Cc3ccc(C(C)(C)C)cc3)s2)ccc1-n1cnc(C)c1 [Example 8, [5-(4-tert-Butyl-benzyl)-4-methyl-thiazol-2-yl]-[3-methoxy-4-(4-methyl-imidazol-1-yl)-phenyl]-amine] | 570
8 | COc1cc(Nc2nc(C)c(Cc3ccc(C#N)cc3)s2)ccc1-n1cnc(C)c1 [Example 6, 4-{2-[3-Methoxy-4-(4-methyl-imidazol-1-yl)-phenylamino]-4-methyl-thiazol-5-ylmethyl}-benzonitrile] | 870
9 | COc1cc(Nc2ncc(C(O)c3ccc(Cl)cc3)s2)ccc1-n1cnc(C)c1 (centres unmarked) [Example 76, (4-Chloro-phenyl)-{2-[3-methoxy-4-(4-methyl-imidazol-1-yl)-phenylamino]-thiazol-5-yl}-methanol] | 340
10 | COc1cc(Nc2nc([C@H](CC(C)C)NS(=O)(=O)c3ccc(F)cc3)cs2)ccc1-n1cnc(C)c1 [Example 39, 4-Fluoro-N—((S)-1-{2-[3-methoxy-4-(4-methyl-imidazol-1-yl)-phenylamino]-thiazol-4-yl}-3-methyl-butyl)-benzene sulfonamide] | 910
11 | COc1cc(Nc2nc(C)c(Cc3ccc(Cl)c(Cl)c3)s2)ccc1-n1cnc(C)c1 [Example 71, [5-(3,4-Dichloro-benzyl)-4-methyl-thiazol-2-yl]-[3-methoxy-4-(4-methyl-imidazol-1-yl)-phenyl]-amine] | 280
12 | COc1cc(Nc2nc([C@H](CC(C)C)NS(C)(=O)=O)cs2)ccc1-n1cnc(C)c1 [Example 41, N—((S)-1-{2-[3-Methoxy-4-(4-methyl-imidazol-1-yl)-phenylamino]-thiazol-4-yl}-3-methyl-butyl)-methane sulfonamide] | 900
13 | COc1cc(Nc2nc([C@H](Cc3ccccc3)NS(=O)(=O)c3ccc(C)cc3)cs2)ccc1-n1cnc(C)c1 [Example 55, N—((S)-1-{2-[3-Methoxy-4-(4-methyl-imidazol-1-yl)-phenylamino]-thiazol-4-yl}-2-phenyl-ethyl)-4-methyl-benzenesulfonamide] | 800
14 | COc1ccc(Br)cc1-c1csc(Nc2ccc(-n3cnc(C)c3)c(OC)c2)n1 [Example 16, [4-(5-Bromo-2-methoxy-phenyl)-thiazol-2-yl]-[3-methoxy-4-(4-methyl-imidazol-1-yl)-phenyl]-amine] | 900
15 | COc1cc(Nc2nc(C)c(Cc3cccc(OC(F)(F)C(F)F)c3)s2)ccc1-n1cnc(C)c1 [Example 69, [3-Methoxy-4-(4-methyl-imidazol-1-yl)-phenyl]-{4-methyl-5-[3-(1,1,2,2-tetrafluoro-ethoxy)-benzyl]-thiazol-2-yl}-amine] | 730
16 | COc1cc(Nc2nc3c(s2)CN(C(=O)OC(C)(C)C)CC3)ccc1-n1cnc(C)c1 [Example 43, 2-[3-Methoxy-4-(4-methyl-imidazol-1-yl)-phenylamino]-6,7-dihydro-4H-thiazolo[5,4-c]pyridine-5-carboxylic acid tert-butyl ester] | 790
17 | COc1cc(Nc2nc(C)c(Cc3ccc(C)c(Cl)c3)s2)ccc1-n1cnc(C)c1 [Example 70, [5-(3-Chloro-4-methyl-benzyl)-4-methyl-thiazol-2-yl]-[3-methoxy-4-(4-methyl-imidazol-1-yl)-phenyl]-amine] | 710
18 | CCOC(=O)c1sc(Nc2ccc(-n3cnc(C)c3)c(OC)c2)nc1C(F)(F)F [Example 42, 2-[3-Methoxy-4-(4-methyl-imidazol-1-yl)-phenylamino]-4-trifluoromethyl-thiazole-5-carboxylic acid ethyl ester] | 640
19 | COc1cc(Nc2nc(C)c(Cc3ccccc3Cl)s2)ccc1-n1cnc(C)c1 [Example 7, [5-(2-Chloro-benzyl)-4-methyl-thiazol-2-yl]-[3-methoxy-4-(4-methyl-imidazol-1-yl)-phenyl]-amine] | 520
20 | COc1cc(Nc2nc([C@H](CC(C)C)NC(=O)CC(F)(F)F)cs2)ccc1-n1cnc(C)c1 [Example 38, 3,3,3-Trifluoro-N—((S)-1-{2-[3-methoxy-4-(4-methyl-imidazol-1-yl)-phenylamino]-thiazol-4-yl}-3-methyl-butyl)-propionamide] | 290
21 | COc1cc(Nc2nc([C@H](CC(C)C)NC(=O)Cc3ccc(F)cc3)cs2)ccc1-n1cnc(C)c1 [Example 34, 2-(4-Fluoro-phenyl)-N—((S)-1-{2-[3-methoxy-4-(4-methyl-imidazol-1-yl)-phenylamino]-thiazol-4-yl}-3-methyl-butyl)-acetamide] | 520
22 | COc1cc(Nc2nc([C@H](CC(C)C)NC(=O)c3ccc(F)cc3)cs2)ccc1-n1cnc(C)c1 [Example 37, 4-Fluoro-N—((S)-1-{2-[3-methoxy-4-(4-methyl-imidazol-1-yl)-phenylamino]-thiazol-4-yl}-3-methyl-butyl)-benzamide] | 410
23 | COc1cc(Nc2nc([C@H](CC(C)C)NS(=O)(=O)Cc3ccccc3)cs2)ccc1-n1cnc(C)c1 [Example 40, N—((S)-1-{2-[3-Methoxy-4-(4-methyl-imidazol-1-yl)-phenylamino]-thiazol-4-yl}-3-methyl-butyl)-C-phenyl-methanesulfonamide] | 550
24 | Cc1cn(-c2ccc(Nc3nc(C)c(Cc4cccc(Cl)c4)s3)cc2C#N)cn1 [Example 4, 5-[5-(3-Chloro-benzyl)-4-methyl-thiazol-2-ylamino]-2-(4-methyl-imidazol-1-yl)-benzonitrile] | 750
25 | COc1cc(Nc2nc(C)c(Cc3cccc(C(F)(F)F)c3)s2)ccc1-n1cnc(C)c1 [Example 9, [3-Methoxy-4-(4-methyl-imidazol-1-yl)-phenyl]-[4-methyl-5-(3-trifluoromethyl-benzyl)-thiazol-2-yl]-amine] | 920
26 | COc1cc(Nc2nc(C(C)(C)c3cc(F)c(F)c(F)c3)cs2)ccc1-n1cnc(C)c1 [Example 78, [3-Methoxy-4-(4-methyl-imidazol-1-yl)-phenyl]-{4-[1-methyl-1-(3,4,5-trifluoro-phenyl)-ethyl]-thiazol-2-yl}-amine] | 680
27 | COc1cc(Nc2ncc(C(O)c3ccccc3)s2)ccc1-n1cnc(C)c1 (centres unmarked) [Example 62, {2-[3-Methoxy-4-(4-methyl-imidazol-1-yl)-phenylamino]-thiazol-5-yl}-phenyl-methanol] | 570
28 | COc1cc(Nc2nc(C(C)(C)c3ccc(Cl)cc3)cs2)ccc1-n1cnc(C)c1 [Example 77, {4-[1-(4-Chloro-phenyl)-1-methyl-ethyl]-thiazol-2-yl}-[3-methoxy-4-(4-methyl-imidazol-1-yl)-phenyl]-amine] | 140
29 | COc1cc(Nc2nc(C)c(Cc3cccc(Cl)c3)s2)ccc1-n1cnc(C)c1 [Example 1, [5-(3-Chloro-benzyl)-4-methyl-thiazol-2-yl]-[3-methoxy-4-(4-methyl-imidazol-1-yl)-phenyl]-amine] | 210
